Results published in patent US20090325959A1 (priority 2008, published 2009).
Read-outs that look alike come from different tables or passages of the source.

Assays:
[1] = biological target: T1, p70S6K human enzyme (Homo sapiens, UniProt P23443, T412E); experiment: p70S6K inhibition assay (IMAP FP); format: biochemical;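 further: kinase reaction run at room temperature, phosphorylated substrate captured on IMAP beads and read as fluorescence polarization in mP, IC50 then converted to Ki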
T1 construct: purchased Upstate Chemicon 14-486
T1 sequence (P23443 1-421 T412E limits assumed): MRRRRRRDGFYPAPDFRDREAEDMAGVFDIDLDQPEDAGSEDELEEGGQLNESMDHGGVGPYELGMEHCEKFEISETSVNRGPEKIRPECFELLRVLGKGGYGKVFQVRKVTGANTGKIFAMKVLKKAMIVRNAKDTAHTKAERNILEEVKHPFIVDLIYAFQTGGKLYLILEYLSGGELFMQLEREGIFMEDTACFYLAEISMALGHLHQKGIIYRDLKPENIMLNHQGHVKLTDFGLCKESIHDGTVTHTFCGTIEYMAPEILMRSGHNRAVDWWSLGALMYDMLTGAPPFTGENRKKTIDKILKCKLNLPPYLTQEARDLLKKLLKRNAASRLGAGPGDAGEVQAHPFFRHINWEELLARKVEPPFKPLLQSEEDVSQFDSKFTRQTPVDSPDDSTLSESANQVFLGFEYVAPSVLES
Description: (§2) Inhibition of Akt3 and p70S6K activity was determined using the IMAP™ FP Progressive Binding Kit (Molecular Devices product number R8127). […] Following the pre-incubation, 30 μM ATP was added to initiate the reaction. After 60 minutes at RT, Molecular Devices IMAP™ binding solution was added to bind phosphorylated substrate. After 30 minutes of incubation in the presence of the IMAP™ beads the fluorescence polarization was read and the ratio was reported as mP. IC50 results were calculated using the Prism software from Graphpad. The Ki values were determined according to the following formula: Ki=IC50/(1+([ATP Challenge]/EC50 ATP)).

[2] = system: human monocytes; experiment: Human monocyte cytokine secretion assay (LPS-stimulated); format: cell-based; details: for IC50: Monocyte, LPS-stimulated human monocytes
Description: Peripheral blood from healthy human volunteers was collected and the monocytes isolated via Ficoll-paque density centrifugation. […] The cells were allowed to pre-incubate with test compound at the indicated concentration for 30 minutes (37° C., 5% CO2, humidified air); after which the supernatant was removed and media containing compound and 1 ng/mL LPS was added. Cells were allowed to incubate with compounds and LPS for 4 hours at 37° C. after which the supernatant was removed and stored at −80° C. Cytokine concentrations in the supernatant were determined using commercially available Bio-Rad Bio-plex™ kits according the manufacturer's instructions.

[3] = biological target: T2, ROCK2 (Homo sapiens, UniProt O75116); experiment: Rho kinase inhibition assay (IMAP fluorescence polarization), ROCK2; format: biochemical;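 further: kinase reaction started with 10 µM ATP and run 60 min at room temperature, then phosphorylated substrate captured on IMAP beads for 30 min and fluorescence polarization read in mP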
T2 construct: purchased Upstate/Chemicon 14-451
T2 sequence (O75116 11-552 limits assumed): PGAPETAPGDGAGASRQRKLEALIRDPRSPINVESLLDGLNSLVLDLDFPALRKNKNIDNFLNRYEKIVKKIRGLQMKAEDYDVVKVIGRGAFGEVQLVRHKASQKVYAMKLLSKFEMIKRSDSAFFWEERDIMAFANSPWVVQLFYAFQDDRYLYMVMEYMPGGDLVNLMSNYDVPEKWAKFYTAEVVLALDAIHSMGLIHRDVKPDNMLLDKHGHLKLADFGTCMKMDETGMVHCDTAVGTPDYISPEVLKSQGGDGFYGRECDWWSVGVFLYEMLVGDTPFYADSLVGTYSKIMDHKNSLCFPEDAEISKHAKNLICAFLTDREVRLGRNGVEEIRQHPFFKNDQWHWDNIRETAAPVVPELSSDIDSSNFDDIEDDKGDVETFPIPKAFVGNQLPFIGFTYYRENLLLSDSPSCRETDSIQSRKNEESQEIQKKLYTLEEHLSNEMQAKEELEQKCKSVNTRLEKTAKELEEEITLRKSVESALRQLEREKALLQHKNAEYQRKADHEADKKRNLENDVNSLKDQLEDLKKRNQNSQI
Description: (§3) Following the pre-incubation, 10 μM ATP was added to initiate the reaction. After 60 minutes at room temperature, Molecular Devices IMAP™ binding solution was added to bind phosphorylated substrate. After 30 minutes of incubation in the presence of the IMAP™ beads, the fluorescence polarization was read and the ratio was reported as mP. IC50 values for compounds and EC50 values for ATP were calculated using the Prism software from Graphpad.

[4] = system: ova-sensitized, ova-challenged mice; experiment: Prevention of airway hyperreactivity (Penh, methacholine) in mouse ovalbumin sensitization model; format: in vivo
[5] = biological target: T3, ERK2 (Homo sapiens, UniProt P28482); experiment: Kinase panel screen (KinaseProfiler), ERK2; format: biochemical
T3 construct: purchased Upstate, Millipore Bioscience Division (KinaseProfiler service)
T3 sequence (P28482 whole entry): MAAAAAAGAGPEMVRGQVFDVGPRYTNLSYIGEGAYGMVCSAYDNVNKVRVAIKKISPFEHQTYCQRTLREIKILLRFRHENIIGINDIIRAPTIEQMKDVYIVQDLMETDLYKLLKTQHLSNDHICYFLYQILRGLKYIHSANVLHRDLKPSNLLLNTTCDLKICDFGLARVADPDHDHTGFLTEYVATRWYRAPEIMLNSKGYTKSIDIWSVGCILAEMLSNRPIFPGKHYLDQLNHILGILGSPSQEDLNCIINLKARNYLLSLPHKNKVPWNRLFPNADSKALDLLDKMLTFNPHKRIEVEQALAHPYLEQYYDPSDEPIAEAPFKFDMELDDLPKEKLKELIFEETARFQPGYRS
Description: (§1) Compounds of Formulae I and II were examined for activity against a selected panel of kinases using the KinaseProfiler™ enzyme profiling services (Upstate, Millipore Bioscience Division). Percent kinase activity at 10 μM and 1 μM test compound and 10 μM ATP was determined against 40 wild-type recombinant human kinases according to Upstate's standard protocol: ASK1, BTK, CSK, c-RAF, GCK, GSK3β, IKKα, IKKβ, IRAK1, IRAK4, JNK1α1, JNK2α2, JNK3, ERK1, ERK2, MAPKAP-K2, MAPKAP-K3, MEK1, MKK4, MKK6, MKK7β, Mnk2, MSK1, PAK3, PDK1, PRAK, ROCK1, Rsk2, SAPK2a, SAPK2b, SAPK3, SAPK4, SRPK1, SRPK2, Syk, TAK1, TBK1, PI3-Kβ, PI3-Kγ, PI3-Kδ.

[6] = biological target: T4, Akt3 human enzyme (Homo sapiens, UniProt Q9Y243); experiment: Akt3 inhibition assay (IMAP FP); format: biochemical;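 further: kinase reaction run 60 min at room temperature after 30 µM ATP start, phosphorylated substrate captured on IMAP beads and read as fluorescence polarization (mP)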
T4 construct: purchased Upstate Chemicon 14-502
T4 sequence (Q9Y243 whole entry): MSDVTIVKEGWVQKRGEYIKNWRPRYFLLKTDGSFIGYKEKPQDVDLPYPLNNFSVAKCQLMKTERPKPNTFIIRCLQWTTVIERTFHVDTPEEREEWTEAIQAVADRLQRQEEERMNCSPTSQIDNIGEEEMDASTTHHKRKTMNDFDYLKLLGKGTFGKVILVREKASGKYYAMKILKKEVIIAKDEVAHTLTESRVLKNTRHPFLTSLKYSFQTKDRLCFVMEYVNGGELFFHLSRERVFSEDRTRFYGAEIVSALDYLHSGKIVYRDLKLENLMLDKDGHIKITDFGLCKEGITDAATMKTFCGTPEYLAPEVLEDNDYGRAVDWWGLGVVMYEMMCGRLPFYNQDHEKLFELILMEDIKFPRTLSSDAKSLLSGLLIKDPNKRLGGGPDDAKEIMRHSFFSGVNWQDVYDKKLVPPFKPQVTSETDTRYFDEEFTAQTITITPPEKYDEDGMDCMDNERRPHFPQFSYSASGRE
Description: as §2

[7] = system: A-10 rat thoracic aorta cells; experiment: PDGF-stimulated smooth muscle cell proliferation assay (BrdU incorporation); format: cell-based; details: A-10 cells, 10 ng/mL PDGF, BrdU incorporation, percent of total challenge-stimulated proliferation;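 further: cells kept in serum-free medium, BrdU allowed to incorporate for 24 h, then incorporated label detected fluorometrically with an anti-BrdU antibody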
Description: Effects on cell proliferation were measured using a bromodeoxyuridine (BrdU) incorporation assay. […] Serum free media containing 01% BSA was added to the cells. 24 hours later the media was removed and replaced with warmed serum free media. […] Proliferation was then monitored using the BrdU Cell Proliferation Assay, HTS (Calbiochem cat. #t HTS01). BrdU was allowed to incorporate into cells for 24 hours prior to the addition of fixative/denaturing solution and the fluorometric detection of incorporated BrdU using a BrdU antibody as per manufacturer's directions. Data are reported as a percent of the PDGF-stimulated BrdU incorporation.

[8] = biological target: T5, ERK1 (Homo sapiens, UniProt P27361); experiment: Kinase panel screen (KinaseProfiler), ERK1; format: biochemical
T5 construct: purchased Upstate, Millipore Bioscience Division (KinaseProfiler service)
T5 sequence (P27361 whole entry): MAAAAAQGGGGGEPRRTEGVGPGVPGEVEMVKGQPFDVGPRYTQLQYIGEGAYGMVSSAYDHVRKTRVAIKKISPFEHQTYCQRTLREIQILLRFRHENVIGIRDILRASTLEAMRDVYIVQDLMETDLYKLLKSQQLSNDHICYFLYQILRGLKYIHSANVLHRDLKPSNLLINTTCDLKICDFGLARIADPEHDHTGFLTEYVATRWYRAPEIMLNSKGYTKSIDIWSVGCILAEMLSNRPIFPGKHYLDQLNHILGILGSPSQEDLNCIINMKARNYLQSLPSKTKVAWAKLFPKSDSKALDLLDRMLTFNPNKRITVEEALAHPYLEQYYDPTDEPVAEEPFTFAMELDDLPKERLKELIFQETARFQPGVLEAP
Description: as §1

[9] = biological target: T6, IRAK4 (Homo sapiens, UniProt Q9NWZ3); experiment: Kinase panel screen (KinaseProfiler), IRAK4; format: biochemical; details: 10 μM ATP
T6 construct: purchased Upstate, Millipore Bioscience Division (KinaseProfiler service)
T6 sequence (Q9NWZ3 1-460): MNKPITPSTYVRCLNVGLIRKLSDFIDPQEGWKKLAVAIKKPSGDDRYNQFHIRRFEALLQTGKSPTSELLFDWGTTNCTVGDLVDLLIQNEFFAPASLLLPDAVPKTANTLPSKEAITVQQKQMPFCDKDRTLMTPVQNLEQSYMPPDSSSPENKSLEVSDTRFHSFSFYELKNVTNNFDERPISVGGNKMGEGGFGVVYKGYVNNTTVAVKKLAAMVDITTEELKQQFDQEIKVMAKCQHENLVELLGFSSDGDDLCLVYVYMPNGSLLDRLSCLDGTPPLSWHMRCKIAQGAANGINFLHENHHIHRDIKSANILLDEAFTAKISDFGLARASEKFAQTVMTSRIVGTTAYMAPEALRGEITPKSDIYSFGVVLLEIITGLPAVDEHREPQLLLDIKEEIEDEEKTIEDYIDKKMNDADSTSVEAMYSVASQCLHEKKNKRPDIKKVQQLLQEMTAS
Description: as §1

[10] = biological target: T7, ROCK1 (Homo sapiens, UniProt Q13464); experiment: Rho kinase inhibition assay (IMAP fluorescence polarization), ROCK1; format: biochemical;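 further: kinase reaction run 60 min at room temperature, then phosphorylated substrate captured on IMAP beads for 30 min, with fluorescence polarization read in mP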
T7 construct: purchased Upstate/Chemicon 14-601
T7 sequence (Q13464 17-535 limits assumed): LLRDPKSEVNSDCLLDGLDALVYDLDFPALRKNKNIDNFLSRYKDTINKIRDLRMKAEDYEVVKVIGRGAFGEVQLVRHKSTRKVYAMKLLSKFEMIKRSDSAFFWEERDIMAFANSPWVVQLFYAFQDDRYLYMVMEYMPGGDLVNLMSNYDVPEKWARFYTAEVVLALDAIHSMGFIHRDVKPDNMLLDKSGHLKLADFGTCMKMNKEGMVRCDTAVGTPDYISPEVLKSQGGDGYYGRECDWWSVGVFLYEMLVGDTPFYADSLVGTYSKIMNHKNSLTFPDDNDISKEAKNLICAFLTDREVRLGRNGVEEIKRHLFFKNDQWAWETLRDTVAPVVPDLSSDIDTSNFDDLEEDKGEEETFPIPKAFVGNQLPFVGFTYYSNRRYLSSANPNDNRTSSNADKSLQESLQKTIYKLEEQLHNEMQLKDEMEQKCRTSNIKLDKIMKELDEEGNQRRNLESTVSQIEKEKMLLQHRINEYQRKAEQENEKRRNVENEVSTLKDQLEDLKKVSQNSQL
Description: as §3

[11] = Compound plasma concentrations in unsensitized mice at 15 min post administration; format: in vivo; details: mouse, 15 μmol/kg; mean compound plasma concentration in mice at 15 minutes post oral administration; read-out: Mouse Oral PK
Description: Additionally, compound concentrations were determined in the plasma and lungs of male, ovalbumin-sensitized, Balb/c mice from a murine model of asthma. Test compounds were formulated in water or 1% polysorbate 80 and dosed at 15 μmol/kg for intraperitoneal (IP) or oral (PO) administration or formulated for intratracheal (IT) administration and dosed at 5 μmol/kg, which directly targets the lungs. Following completion of the in vivo study, mice were euthanized and blood and plasma collected approximately 2.5-3 hours post administration of test compound for bronchodialator (BD) studies and 24 hours post administration for anti-inflamatory (AI) studies. Lungs were homogenized in Matrix A lysing tubes using a FastPrep 24 tissue and cell homogenizer (MP Biomedicals, Solon, Ohio). Both plasma samples and lung extracts were assayed for compound concentrations using an on-line, solid phase extraction LC/MS/MS system.

[12] = biological target: T8, Mnk2 (Homo sapiens, UniProt Q9HBH9); experiment: Kinase panel screen (KinaseProfiler), Mnk2; format: biochemical; details: 10 μM ATP
T8 construct: purchased Upstate, Millipore Bioscience Division (KinaseProfiler service)
T8 sequence (Q9HBH9 whole entry): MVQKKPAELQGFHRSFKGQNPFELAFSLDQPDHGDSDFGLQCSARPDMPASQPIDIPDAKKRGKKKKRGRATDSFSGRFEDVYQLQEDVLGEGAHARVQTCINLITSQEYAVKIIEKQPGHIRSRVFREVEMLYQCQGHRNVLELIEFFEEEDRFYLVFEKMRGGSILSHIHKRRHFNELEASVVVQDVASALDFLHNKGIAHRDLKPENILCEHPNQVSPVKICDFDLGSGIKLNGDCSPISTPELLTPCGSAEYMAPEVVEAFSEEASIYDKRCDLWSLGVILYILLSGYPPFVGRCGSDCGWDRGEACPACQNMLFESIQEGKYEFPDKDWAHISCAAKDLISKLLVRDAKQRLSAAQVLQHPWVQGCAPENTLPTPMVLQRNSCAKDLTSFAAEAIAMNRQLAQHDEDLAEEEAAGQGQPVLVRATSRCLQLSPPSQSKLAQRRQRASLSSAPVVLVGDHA
Description: as §1

[13] = system: LPS-challenged mice; experiment: LPS-induced neutrophilia and cytokine production assay; format: in vivo, mouse; details: intratracheal administration; FIG. 11B
Description: Male BALB/c mice, approximately 19 to 21 grams, were ordered from Charles River Laboratories (Raleigh, N.C.). All animals were challenged with aerosolized LPS (10 μg/ml) for 25 minutes on study day 0. LPS aerosol was generated using an Aerogen Aeroneb nebulizer and controller providing a flow of 400 μl/min and a particle size of 2-4 μm MMAD. Rolipram was administered i.p at 20 mg/kg. […] Four hours following LPS challenge, BALF was collected using a total of 3 ml of 0.9% sodium chloride containing 10% fetal calf serum. Total cell counts were determined using the Coulter Counter. For differential evaluations, BALF was centrifuged and cytospin slides prepared and stained with Hema3 stain. Manual leukocyte counts were then completed on 200 cells. The final concentration of individual leukocyte cell types per ml of BALF was determined by multiplication of the relative percentage of individual leukocytes with the total amount of cells/ml of BALF fluid. The concentration of IL-1β in the BALF samples was determined using commercially available Bio-plex kits (Bio-Rad). The analysis of cytokine levels was measured using the Bio-Plex 200 (Bio-Rad) system according to the manufacturer's instructions.

`NC(=O)Cn1ccc2cc(CN3CC[C@@H](Nc4cccc5cnccc45)C3)ccc21` [Compound 2.059, (R)-2-(5-((3-(isoquinolin-5-ylamino)pyrrolidin-1-yl)methyl)-1H-indol-1-yl)acetamide] showed a Ki ([1]; 30 μM ATP, Ki=IC50/(1+([ATP Challenge]/EC50 ATP)), read-out: p70S6K Ki, Avg) of 208 nM, a Ki ([1]; average Ki, read-out: p70S6K Ki) of 208 nM and an IC50 ([2]; read-out: IC50 for inhibition of IL-1β secretion) of 169 ± 13 nM. The IC50 ([2]; read-out: IC50 for inhibition of IL-9 secretion) was 269 ± 28.1 nM, the IC50 ([2]; read-out: IC50 for inhibition of TNF-α secretion) was 207 ± 17 nM and the “IL-6, %” value ([2]; average percent of stimulated IL-6 secretion from human monocytes at 10 μM of test compound) was 0.0%. For the same compound, the Ki ([3]; 10 μM ATP, read-out: ROCK2 Ki, Avg) was 2.7 nM, the Ki ([3]; average Ki, read-out: ROCK2 Ki) was 2.7 nM and the “log10AUC (Penh)” value ([4]; 0.5 μmol/kg/intratracheal, days 27 to 31) was 1.9979. For the same compound, the airway hyperreactivity ([4]; intratracheal once a day during days 27 to 31) was “prevention of airway hyperreactivity”, the “ERK2 Percent inhibition, 1 μM” value [5] was 56% and the “ERK2 Percent inhibition, 10 μM” value [5] was 12%. For the same compound, the inhibition at 1 µM ([5]; 1 μM, read-out: ERK2 inhibited) was ~50%, the Ki ([6]; 30 μM ATP, Ki=IC50/(1+([ATP Challenge]/EC50 ATP)), read-out: Akt3 Ki, Avg) was 120 nM and the Ki ([6]; average Ki, read-out: Akt3 Ki) was 120 nM. For the same compound, the “Percent of PDGF Induced Proliferation at 1 μM Avg” value ([7]; 1 μM test compound) was 75.0%, the “Percent of PDGF Induced Proliferation at 10 μM Avg” value ([7]; 10 μM test compound) was 25.5% and the activity at 1 µM ([8]; 1 μM test compound, 10 μM ATP, read-out: ERK1 Percent inhibition, 1 μM) was 37%. The inhibition at 1 µM ([8]; 1 μM, read-out: ERK1 inhibited) was ~50%, the activity at 10 µM ([8]; 10 μM test compound, 10 μM ATP, read-out: ERK1 Percent inhibition, 10 μM) was 4% and the activity at 1 µM ([9]; 1 μM test compound, read-out: IRAK4 Percent inhibition, 1 μM) was 63%. For the same compound, the activity at 10 µM ([9]; 10 μM test compound, read-out: IRAK4 Percent inhibition, 10 μM) was 22%, the Ki ([10]; Avg, 10 μM ATP) was 3.9 nM and the Ki ([10]; average Ki) was 3.9 nM. It also gave a concentration at 15 min [11] of 90 nM, an activity at 1 µM ([12]; 1 μM test compound, read-out: Mnk2 Percent inhibition, 1 μM) of 49% and an activity at 10 µM ([12]; 10 μM test compound, read-out: Mnk2 Percent inhibition, 10 μM) of 12%. The “IL-1β levels in BALF from LPS-challenged mice” value [13] was “reduction”.
